PubChem BioAssay AID1963846 (Molecular Pharmacology Branch, DTP, NCI, 2024)

System: 454973-116-R2-J3-PDC complex spheroid viability
Test: Anticancer human tumor 454973-116-R2-J3-PDC patient-derived pancreatic carcinoma cell line growth inhibition [POLQ]
Details: for IC50: curve of first compound; for viability, T/C: stronger effect = lower value
Method in brief: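 Growth inhibition in 3D: complex spheroids (tumor PDC, HUVEC, MSC) treated with POLQ inhibitor combinations; where Cmax unknown, highest tested concentration 10 microM, except SN-38 at 1 microM.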

[1] = second compound 0.0316 µM, first compound 0.0316 µM
[2] = second compound 0.0316 µM, first compound 0.1 µM
[3] = second compound 0.0316 µM, first compound 0.316 µM
[4] = second compound 0.0316 µM, first compound 1 µM
[5] = second compound 0.0316 µM, first compound 3.16 µM
[6] = second compound 0.0316 µM, first compound 10 µM
[7] = second compound 0.1 µM, first compound 0.0316 µM
[8] = second compound 0.1 µM, first compound 0.1 µM
[9] = second compound 0.1 µM, first compound 0.316 µM
[10] = second compound 0.1 µM, first compound 1 µM
[11] = second compound 0.1 µM, first compound 3.16 µM
[12] = second compound 0.1 µM, first compound 10 µM
[13] = second compound 0.316 µM, first compound 0.0316 µM
[14] = second compound 0.316 µM, first compound 0.1 µM
[15] = second compound 0.316 µM, first compound 0.316 µM
[16] = second compound 0.316 µM, first compound 1 µM
[17] = second compound 0.316 µM, first compound 3.16 µM
[18] = second compound 0.316 µM, first compound 10 µM
[19] = second compound 1 µM, first compound 0.0316 µM
[20] = second compound 1 µM, first compound 0.1 µM
[21] = second compound 1 µM, first compound 0.316 µM
[22] = second compound 1 µM, first compound 1 µM
[23] = second compound 1 µM, first compound 3.16 µM
[24] = second compound 1 µM, first compound 10 µM
[25] = second compound 3.16 µM, first compound 0.0316 µM
[26] = second compound 3.16 µM, first compound 0.1 µM
[27] = second compound 3.16 µM, first compound 0.316 µM
[28] = second compound 3.16 µM, first compound 1 µM
[29] = second compound 3.16 µM, first compound 3.16 µM
[30] = second compound 3.16 µM, first compound 10 µM
[31] = second compound 10 µM, first compound 0.0316 µM
[32] = second compound 10 µM, first compound 0.1 µM
[33] = second compound 10 µM, first compound 0.316 µM
[34] = second compound 10 µM, first compound 1 µM
[35] = second compound 10 µM, first compound 3.16 µM
[36] = second compound 10 µM, first compound 10 µM
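Further: spheroids exposed to drugs for seven days before measurement.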
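Wherever viability, T/C is given: percent viability relative to DMSO vehicle control wells taken as 100%.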

Work on `COc1cc2cc(C(=O)CCC(=O)O)sc2cc1OC` + COC1C(OC(N)=O)C(O)C(Oc2ccc3c(O)c(NC(=O)c4ccc(O)c(CC=C(C)C)c4)c(=O)oc3c2C)OC1(C)C yielded an IC50 (second compound 0.0316 µM) greater than 10 µM, an IC50 (second compound 0.1 µM) greater than 10 µM and an IC50 (second compound 0.316 µM) greater than 10 µM. The IC50 (second compound 1 µM) was greater than 10 µM, the IC50 (second compound 3.16 µM) was greater than 10 µM and the IC50 (second compound 10 µM) was greater than 10 µM. It also gave a viability, T/C [1] of 95.3%, a viability, T/C [2] of 100% and a viability, T/C [3] of 102%. For the same compound, the viability, T/C [4] was 121%, the viability, T/C [5] was 113% and the viability, T/C [6] was 96%. It also gave a viability, T/C [7] of 101%, a viability, T/C [8] of 115% and a viability, T/C [9] of 99.3%. The viability, T/C [10] was 118%, the viability, T/C [11] was 111% and the viability, T/C [12] was 102%. The viability, T/C [13] was 109%, the viability, T/C [14] was 110% and the viability, T/C [15] was 120%. For the same compound, the viability, T/C [16] was 110%, the viability, T/C [17] was 104% and the viability, T/C [18] was 97.2%. It also gave a viability, T/C [19] of 107%, a viability, T/C [20] of 102% and a viability, T/C [21] of 127%. For the same compound, the viability, T/C [22] was 110%, the viability, T/C [23] was 107% and the viability, T/C [24] was 93.8%. The viability, T/C [25] was 110%, the viability, T/C [26] was 103% and the viability, T/C [27] was 105%. For the same compound, the viability, T/C [28] was 112%, the viability, T/C [29] was 105% and the viability, T/C [30] was 93%. For the same compound, the viability, T/C [31] was 114%, the viability, T/C [32] was 102% and the viability, T/C [33] was 93.6%. The viability, T/C [34] was 100%, the viability, T/C [35] was 99.4% and the viability, T/C [36] was 90.5%.
`COc1cccc(OCCCN)c1-c1cc(Nc2cnc(C#N)cn2)n[nH]1` + Nc1ccc(C#CCN(C(=O)Cc2ncc(C(F)(F)F)cc2C(F)(F)F)c2ccc(F)cc2)nn1 showed an IC50 (second compound 0.0316 µM) of 0.0156 µM, an IC50 (second compound 0.1 µM) of 0.0136 µM and an IC50 (second compound 0.316 µM) of 0.0143 µM. It also gave an IC50 (second compound 1 µM) of 0.0139 µM, an IC50 (second compound 3.16 µM) of 0.0137 µM and an IC50 (second compound 10 µM) of 0.0116 µM. It also gave a viability, T/C (second compound 0.0316 µM, first compound 0.00316 µM) of 100%, a viability, T/C (second compound 0.0316 µM, first compound 0.01 µM) of 76.6% and a viability, T/C [1] of 7.44%. The viability, T/C [2] was 5.67%, the viability, T/C [3] was 5.56% and the viability, T/C [4] was 4.28%. The viability, T/C (second compound 0.1 µM, first compound 0.00316 µM) was 101%, the viability, T/C (second compound 0.1 µM, first compound 0.01 µM) was 63.5% and the viability, T/C [7] was 12.7%. For the same compound, the viability, T/C [8] was 6.65%, the viability, T/C [9] was 5.32% and the viability, T/C [10] was 4.22%. It also gave a viability, T/C (second compound 0.316 µM, first compound 0.00316 µM) of 110%, a viability, T/C (second compound 0.316 µM, first compound 0.01 µM) of 67.2% and a viability, T/C [13] of 11.2%. For the same compound, the viability, T/C [14] was 7.21%, the viability, T/C [15] was 5.08% and the viability, T/C [16] was 4.5%. The viability, T/C (second compound 1 µM, first compound 0.00316 µM) was 99.7%, the viability, T/C (second compound 1 µM, first compound 0.01 µM) was 67.3% and the viability, T/C [19] was 6.4%. The viability, T/C [20] was 5.68%, the viability, T/C [21] was 5.11% and the viability, T/C [22] was 3.75%. For the same compound, the viability, T/C (second compound 3.16 µM, first compound 0.00316 µM) was 101%, the viability, T/C (second compound 3.16 µM, first compound 0.01 µM) was 66.7% and the viability, T/C [25] was 5.97%. The viability, T/C [26] was 5.07%, the viability, T/C [27] was 5.91% and the viability, T/C [28] was 4.97%. The viability, T/C (second compound 10 µM, first compound 0.00316 µM) was 113%, the viability, T/C (second compound 10 µM, first compound 0.01 µM) was 56.4% and the viability, T/C [31] was 5.54%. For the same compound, the viability, T/C [32] was 5.59%, the viability, T/C [33] was 5.26% and the viability, T/C [34] was 4.7%.
Compound `CC1COCCN1c1cc(-c2ccnn2C)c2ccnc(-c3ccn[nH]3)c2n1` (stereo unspecified) + Nc1ccc(C#CCN(C(=O)Cc2ncc(C(F)(F)F)cc2C(F)(F)F)c2ccc(F)cc2)nn1 has an IC50 (second compound 0.0316 µM) of 0.126 µM, an IC50 (second compound 0.1 µM) of 0.117 µM and an IC50 (second compound 0.316 µM) of 0.119 µM. It also gave an IC50 (second compound 1 µM) of 0.109 µM, an IC50 (second compound 3.16 µM) of 0.119 µM and an IC50 (second compound 10 µM) of 0.09 µM. The viability, T/C [1] was 83.6%, the viability, T/C [2] was 57.6% and the viability, T/C [3] was 19.8%. For the same compound, the viability, T/C [4] was 11.3%, the viability, T/C [5] was 14% and the viability, T/C [6] was 14.1%. It also gave a viability, T/C [7] of 80.3%, a viability, T/C [8] of 54.6% and a viability, T/C [9] of 20.1%. For the same compound, the viability, T/C [10] was 13.5%, the viability, T/C [11] was 11.2% and the viability, T/C [12] was 14.6%. It also gave a viability, T/C [13] of 91%, a viability, T/C [14] of 55.6% and a viability, T/C [15] of 19.1%. The viability, T/C [16] was 9.76%, the viability, T/C [17] was 12.6% and the viability, T/C [18] was 14.6%. For the same compound, the viability, T/C [19] was 90.2%, the viability, T/C [20] was 52.7% and the viability, T/C [21] was 16.8%. It also gave a viability, T/C [22] of 11.3%, a viability, T/C [23] of 13.6% and a viability, T/C [24] of 14.5%. It also gave a viability, T/C [25] of 88.7%, a viability, T/C [26] of 55.6% and a viability, T/C [27] of 18.2%. The viability, T/C [28] was 11.3%, the viability, T/C [29] was 9.64% and the viability, T/C [30] was 11.8%. For the same compound, the viability, T/C [31] was 92.5%, the viability, T/C [32] was 45.7% and the viability, T/C [33] was 17.5%. It also gave a viability, T/C [34] of 10.5%, a viability, T/C [35] of 10.2% and a viability, T/C [36] of 13.4%.
